Laboratory results reported in patent US8563714B2, “Bridged spiro [2.4] heptane derivatives as ALX receptor and/or FPRL2 agonists” (Actelion Pharmaceuticals Ltd., priority 2009, dated 2013).

Tests used:
human ALX receptor = molecular target: T1, human ALX receptor (Homo sapiens, UniProt P25090); assay: Intracellular calcium measurements (FLIPR), agonistic activity in HEK293-hALXR-Gα16 cells; assay type: cell-based; conditions: Fluo-4 calcium FLIPR, normalized to WKYMVm 10 nM
T1 construct: expressed in transfected cells; host or cells: HEK293 (HEK293-hALXR-Gα16)
T1 sequence (P25090 1-351): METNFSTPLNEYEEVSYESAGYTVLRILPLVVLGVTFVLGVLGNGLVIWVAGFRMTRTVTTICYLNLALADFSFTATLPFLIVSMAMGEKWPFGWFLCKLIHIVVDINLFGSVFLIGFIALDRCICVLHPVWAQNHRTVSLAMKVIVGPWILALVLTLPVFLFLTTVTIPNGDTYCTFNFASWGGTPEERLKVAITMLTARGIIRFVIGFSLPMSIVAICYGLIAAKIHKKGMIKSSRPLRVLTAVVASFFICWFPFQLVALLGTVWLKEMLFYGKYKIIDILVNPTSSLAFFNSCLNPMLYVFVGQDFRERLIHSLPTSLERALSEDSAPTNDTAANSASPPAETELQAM
How it was run: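 Agonist-induced calcium flux was recorded by FLIPR (488/540 nm) in HEK293-hALXR-Gα16 cells pre-loaded with Fluo-4 AM (1 μM, 60 min, 37°C). Peak signal above baseline, after subtracting buffer addition, was expressed relative to WKYMVm at 10 nM final.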

human FPRL2 = molecular target: T2, human FPRL2 (Homo sapiens, UniProt P25089); assay: Intracellular calcium measurements (FLIPR), agonistic activity in HEK293-hFPRL2-Gα16 cells; assay type: cell-based; conditions: Fluo-4 calcium FLIPR, normalized to GLY14-Humanin 100 nM
T2 construct: expressed in transfected cells; host or cells: HEK293 (HEK293-hFPRL2-Gα16)
T2 sequence (P25089 1-353): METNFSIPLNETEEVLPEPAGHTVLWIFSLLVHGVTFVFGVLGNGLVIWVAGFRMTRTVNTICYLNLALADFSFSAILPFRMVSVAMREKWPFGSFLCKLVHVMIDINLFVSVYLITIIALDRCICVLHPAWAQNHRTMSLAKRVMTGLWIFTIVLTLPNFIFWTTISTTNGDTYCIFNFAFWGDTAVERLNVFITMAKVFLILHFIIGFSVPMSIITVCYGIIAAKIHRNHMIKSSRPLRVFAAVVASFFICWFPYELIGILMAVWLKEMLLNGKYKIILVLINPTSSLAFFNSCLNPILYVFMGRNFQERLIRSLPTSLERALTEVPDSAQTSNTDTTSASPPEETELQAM
How it was run: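 Peak values after baseline subtraction are expressed relative to 100 nM Gly14-Humanin; compounds diluted in assay buffer from 10 mM DMSO stocks.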

SMILES | EC50 (human ALX receptor) | EC50 (human FPRL2)
NC(=O)CCNC(=O)[C@H]1[C@H](C(=O)Nc2ccc(Br)cc2)[C@@H]2CC[C@H]1C21CC1 (racemic) [Example 102, (5R*)—N^5-(4-Bromophenyl)-(6R*)—N^6-(2-carbamoyl-ethyl)-(4S*,7R*)-[4,7-ethylene-spiro[2.4]heptane]-5,6-dicarboxamide] | 0.46 nM | > 25000 nM
COCCCNC(=O)[C@H]1[C@H](C(=O)Nc2ccc(Br)cc2)[C@@H]2CC[C@H]1C21CC1 (racemic) [Example 103, (5R*)—N^5-(4-Bromophenyl)-(6R*)—N^6-(3-methoxy-propyl)-(4S*,7R*)-[4,7-ethylene-spiro[2.4]heptane]-5,6-dicarboxamide] | 4.8 nM | 6920 nM
O=C(NCCN1CCNC1=O)[C@H]1[C@H](C(=O)Nc2ccc(Br)cc2)[C@@H]2CC[C@H]1C21CC1 (racemic) [Example 105, (5R*)—N^5-(4-Bromophenyl)-(6R*)—N^6-[(2-imidazolidin-2-on-1-yl)-ethyl]-(4S*,7R*)-[4,7-ethylene-spiro[2.4]heptane]-5,6-dicarboxamide] | 2.4 nM | 3730 nM
O=C(NC1CC1)[C@H]1[C@H](C(=O)Nc2ccc(Br)cc2)[C@@H]2CC[C@H]1C21CC1 (racemic) [Example 106, (5R*)—N^5-(4-Bromophenyl)-(6R*)—N^6-(cyclopropyl)-(4S*,7R*)-[4,7-ethylene-spiro[2.4]heptane]-5,6-dicarboxamide] | 82 nM | 2930 nM
O=C(NCCCO)[C@H]1[C@H](C(=O)Nc2ccc(Br)cc2)[C@@H]2CC[C@H]1C21CC1 (racemic) [Example 107, (5R*)—N^5-(4-Bromophenyl)-(6R*)—N^6-(3-hydroxy-propyl)-(4S*,7R*)-[4,7-ethylene-spiro[2.4]heptane]-5,6-dicarboxamide] | 1.8 nM | 2270 nM
O=C(NCCCn1ccnc1)[C@H]1[C@H](C(=O)Nc2ccc(Br)cc2)[C@@H]2CC[C@H]1C21CC1 (racemic) [Example 108, (5R*)—N^5-(4-Bromophenyl)-(6R*)—N^6-(3-(1H-imidazol-1-yl)-propyl)-(4S*,7R*)-[4,7-ethylene-spiro[2.4]heptane]-5,6-dicarboxamide] | 4.1 nM | 1480 nM
CN(C)CCCCCNC(=O)[C@H]1[C@H](C(=O)Nc2ccc(Br)cc2)[C@@H]2CC[C@H]1C21CC1 (racemic) [Example 109, (5R*)—N^5-(4-Bromophenyl)-(6R*)—N^6-(5-(dimethyl-amino)-pentyl)-(4S*,7R*)-[4,7-ethylene-spiro[2.4]heptane]-5,6-dicarboxamide] | 0.7 nM | 666 nM
O=C(NCCCN1CCCC1)[C@H]1[C@H](C(=O)Nc2ccc(Br)cc2)[C@@H]2CC[C@H]1C21CC1 (racemic) [Example 110, (5R*)—N^5-(4-Bromophenyl)-(6R*)—N^6-(3-pyrrolidin-1-yl-propyl)-(4S*,7R*)-[4,7-ethylene-spiro[2.4]heptane]-5,6-dicarboxamide] | 16 nM | 307 nM
CN1CCN(CCCNC(=O)[C@H]2[C@H](C(=O)Nc3ccc(Br)cc3)[C@@H]3CC[C@H]2C32CC2)CC1 (racemic) [Example 111, (5R*)—N^5-(4-Bromophenyl)-(6R*)—N^6-(3-(4-methyl-piperazin-1-yl)-propyl)-(4S*,7R*)-[4,7-ethylene-spiro[2.4]heptane]-5,6-dicarboxamide] | 1.3 nM | 71 nM
O=C(NCCCCN1CCCC1)C1C(C(=O)Nc2ccc(Br)nc2)C2C=CC1C21CC1 (racemic) [Example 114, (5R*)—N^5-(2-Bromopyridin-5-yl)-(6R*)—N^6-(4-pyrrolidin-1-yl-butyl)-(4S*,7R*)-[4,7-ethenylene-spiro[2.4]heptane]-5,6-dicarboxamide] | 1.4 nM | 532 nM
COc1ccc(NC(=O)C2C(C(=O)NCCCCN3CCCC3)C3C=CC2C32CC2)cc1 (racemic) [Example 115, (5R*)—N^5-(4-Methoxyphenyl)-(6R*)—N^6-(4-pyrrolidin-1-yl-butyl)-(4S*,7R*)-[4,7-ethenylene-spiro[2.4]heptane]-5,6-dicarboxamide] | 2 nM | 204 nM
O=C(NCCCCN1CCCC1)C1C(C(=O)Nc2ccc(Cl)nc2)C2C=CC1C21CC1 (racemic) [Example 116, (5R*)—N^5-(2-Chloro-pyridin-5-yl)-(6R*)—N^6-(4-pyrrolidin-1-yl-butyl)-(4S*,7R*)-[4,7-ethenylene-spiro[2.4]heptane]-5,6-dicarboxamide] | 7.8 nM | 891 nM
O=C(NCCCCN1CCCC1)[C@H]1[C@H](C(=O)Nc2ccc3scnc3c2)[C@@H]2C=C[C@H]1C21CC1 (racemic) [Example 117, (5R*)—N^5-(Benzothiazol-5-yl)-(6R*)—N^6-(4-pyrrolidin-1-yl-butyl)-(4S*,7R*)-[4,7-ethenylene-spiro[2.4]heptane]-5,6-dicarboxamide] | 10 nM | 359 nM
O=C(NCCCCN1CCCC1)C1C(C(=O)NCc2ccc(Br)cc2)C2C=CC1C21CC1 (racemic) [Example 118, (5R*)—N^5-(4-Bromophenyl-methyl)-(6R*)—N^6-(4-pyrrolidin-1-yl-butyl)-(4S*,7R*)-[4,7-ethenylene-spiro[2.4]heptane]-5,6-dicarboxamide] | 47 nM | 140 nM
O=C(NCCCCN1CCCC1)C1C(C(=O)Nc2ccc(Br)cn2)C2C=CC1C21CC1 (racemic) [Example 119, (5R*)—N^5-(5-Bromo-pyridin-2-yl)-(6R*)—N^6-(4-pyrrolidin-1-yl-butyl)-(4S*,7R*)-[4,7-ethenylene-spiro[2.4]heptane]-5,6-dicarboxamide] | 17 nM | 404 nM
O=C(NCCCCN1CCCC1)[C@H]1[C@H](C(=O)Nc2ncc(Br)s2)[C@@H]2C=C[C@H]1C21CC1 (racemic) [Example 120, (5R*)—N^5-(5-Bromo-thiazol-2-yl)-(6R*)—N^6-(4-pyrrolidin-1-yl-butyl)-(4S*,7R*)-[4,7-ethenylene-spiro[2.4]heptane]-5,6-dicarboxamide] | 17 nM | 363 nM
Cc1ccc(NC(=O)[C@H]2[C@H](C(=O)NCCCCN3CCCC3)[C@H]3C=C[C@@H]2C32CC2)nc1 (racemic) [Example 121, (5R*)—N^5-(5-Methyl-pyridin-2-yl)-(6R*)—N^6-(4-pyrrolidin-1-yl-butyl)-(4S*,7R*)-[4,7-ethenylene-spiro[2.4]heptane]-5,6-dicarboxamide] | 95 nM | 454 nM
CCCCCNC(=O)[C@H]1[C@H](C(=O)NCCCCN2CCCC2)[C@H]2C=C[C@@H]1C21CC1 (racemic) [Example 122, (5R*)—N^5-Pentyl-(6R*)—N^6-(4-pyrrolidin-1-yl-butyl)-(4S*,7R*)-[4,7-ethenylene-spiro[2.4]heptane]-5,6-dicarboxamide] | 79 nM | 496 nM
Cc1ccc(CNC(=O)[C@H]2[C@H](C(=O)NCCCCN3CCCC3)[C@H]3C=C[C@@H]2C32CC2)cc1 (racemic) [Example 123, (5R*)—N^5-[(4-Methyl-phenyl)-methyl]-(6R*)—N^6-(4-pyrrolidin-1-yl-butyl)-(4S*,7R*)-[4,7-ethenylene-spiro[2.4]heptane]-5,6-dicarboxamide] | 46 nM | 332 nM
COC(=O)CCNC(=O)[C@H]1[C@H](C(=O)NCCCCN2CCCC2)[C@H]2C=C[C@@H]1C21CC1 (racemic) [Example 124, (5R*)—N^5-(2-Methoxycarbonyl-ethyl)-(6R*)—N^6-(4-pyrrolidin-1-yl-butyl)-(4S*,7R*)-[4,7-ethenylene-spiro[2.4]heptane]-5,6-dicarboxamide] | 52 nM | 1150 nM
O=C(NCCCCN1CCCC1)[C@H]1[C@H](C(=O)NCC2CCCCC2)[C@@H]2C=C[C@H]1C21CC1 (racemic) [Example 125, (5R*)—N^5-(Cyclohexyl-methyl)-(6R*)—N^6-(4-pyrrolidin-1-yl-butyl)-(4S*,7R*)-[4,7-ethenylene-spiro[2.4]heptane]-5,6-dicarboxamide] | 60 nM | 268 nM
CC(=O)CCCCNC(=O)[C@H]1[C@H](C(=O)NCCCCN2CCCC2)[C@H]2C=C[C@@H]1C21CC1 (racemic) [Example 127, (5R*)—N^5-(5-oxo-hexyl)-(6R*)—N^6-(4-pyrrolidin-1-yl-butyl)-(4S*,7R*)-[4,7-ethenylene-spiro[2.4]heptane]-5,6-dicarboxamide] | 95 nM | 2740 nM
